Converted amounts (≈) assume the structure as drawn. “And” between values parts separate entries of the source, which are not always exact repeats. Equal values may be shown once. Read-outs that look alike come from different tables or passages of the source.
Columns and labels:
OAT1 = molecular target: T1, OAT1 (Homo sapiens, UniProt Q4U2R8); test: Transporter inhibition using transfected HEK293 cells
T1 sequence (Q4U2R8 1-563): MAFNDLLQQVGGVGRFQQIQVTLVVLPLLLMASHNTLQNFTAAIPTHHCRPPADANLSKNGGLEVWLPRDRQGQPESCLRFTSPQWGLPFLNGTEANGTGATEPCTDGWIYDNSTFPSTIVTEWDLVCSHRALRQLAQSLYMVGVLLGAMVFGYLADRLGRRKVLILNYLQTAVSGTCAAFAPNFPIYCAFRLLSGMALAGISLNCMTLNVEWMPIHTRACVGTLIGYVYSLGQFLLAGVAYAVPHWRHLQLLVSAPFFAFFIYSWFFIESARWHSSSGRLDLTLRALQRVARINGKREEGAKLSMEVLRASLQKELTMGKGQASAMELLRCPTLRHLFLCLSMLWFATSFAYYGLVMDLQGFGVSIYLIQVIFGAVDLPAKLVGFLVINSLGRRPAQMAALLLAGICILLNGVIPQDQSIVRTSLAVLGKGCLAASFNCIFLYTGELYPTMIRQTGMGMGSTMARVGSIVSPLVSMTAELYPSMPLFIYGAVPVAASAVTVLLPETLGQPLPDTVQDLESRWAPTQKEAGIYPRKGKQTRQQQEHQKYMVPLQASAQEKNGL

[1] = Rat pharmacokinetic study; conditions: for AUC(0-inf): AUCinf; for Vd: Vdss
MATE1 = molecular target: T2, MATE1 (Homo sapiens, UniProt Q96FL8); test: Transporter inhibition using transfected HEK293 cells
T2 sequence (Q96FL8 1-570): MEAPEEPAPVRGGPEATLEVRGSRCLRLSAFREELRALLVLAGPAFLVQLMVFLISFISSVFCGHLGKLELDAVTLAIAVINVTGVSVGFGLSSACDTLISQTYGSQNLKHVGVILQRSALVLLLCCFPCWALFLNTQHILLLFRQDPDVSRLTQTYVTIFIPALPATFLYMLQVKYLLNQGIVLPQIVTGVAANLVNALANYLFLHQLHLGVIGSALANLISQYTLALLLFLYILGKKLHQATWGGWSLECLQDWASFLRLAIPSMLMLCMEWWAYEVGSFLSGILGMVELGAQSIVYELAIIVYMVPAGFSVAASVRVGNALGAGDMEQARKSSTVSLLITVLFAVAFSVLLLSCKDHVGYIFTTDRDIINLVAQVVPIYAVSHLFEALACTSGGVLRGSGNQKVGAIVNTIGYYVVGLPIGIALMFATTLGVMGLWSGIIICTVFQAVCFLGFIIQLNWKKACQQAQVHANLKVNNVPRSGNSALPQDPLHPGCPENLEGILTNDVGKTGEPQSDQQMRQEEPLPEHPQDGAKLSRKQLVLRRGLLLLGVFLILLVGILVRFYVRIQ

OCT1 = molecular target: T3, OCT1 (Homo sapiens, UniProt O15245); test: as above; type: in vitro ADME; conditions: IC50, [14C]Metformin (10 µM)
T3 construct: expressed in transfected cells; host or cells: HEK293
T3 sequence (O15245 1-554): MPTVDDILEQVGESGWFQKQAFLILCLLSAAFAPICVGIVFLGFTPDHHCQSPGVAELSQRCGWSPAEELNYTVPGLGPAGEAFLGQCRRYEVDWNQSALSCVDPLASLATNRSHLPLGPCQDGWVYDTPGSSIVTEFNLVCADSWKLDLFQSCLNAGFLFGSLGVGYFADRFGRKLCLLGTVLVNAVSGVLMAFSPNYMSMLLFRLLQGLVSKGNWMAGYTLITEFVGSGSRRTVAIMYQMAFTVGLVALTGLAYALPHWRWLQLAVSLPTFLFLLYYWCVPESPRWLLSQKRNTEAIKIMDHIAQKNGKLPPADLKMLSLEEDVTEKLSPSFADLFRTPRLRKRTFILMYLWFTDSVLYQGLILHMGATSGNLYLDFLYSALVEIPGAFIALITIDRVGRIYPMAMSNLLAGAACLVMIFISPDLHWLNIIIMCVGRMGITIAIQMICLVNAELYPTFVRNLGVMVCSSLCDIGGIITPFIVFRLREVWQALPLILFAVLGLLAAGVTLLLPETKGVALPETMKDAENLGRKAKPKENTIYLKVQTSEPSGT

[2] = male, Wistar-Hannover, rat, plasma, iv, 2 mg/kg, Mean, PF-00835231 active dosed 2mg/kg intravenous
[3] = male, Wistar-Hannover, rat, plasma, iv, 2 mg/kg, PF-00835231 active dosed 2mg/kg intravenous, individual rats
[4] = rat, PF-00835231 active dosed 2mg/kg intravenous, individual rats, 2 mg/kg

With `COc1cccc2[nH]c(C(=O)N[C@@H](CC(C)C)C(=O)N[C@@H](C[C@@H]3CCNC3=O)C(=O)CO)cc12` [PF-00835231] the IC50 (OAT1) was over 300 µM, the IC50 (OAT1; human, HEK293 cells transfected with OAT1, pH 7.4, probe [3H] para-aminohippuric acid (0.5 µM)) was over 20 µM and the Vdss ([1]; Rat, 2mg/kg intravenous, individual animals, 2 mg/kg) was 1.02 L/kg and 0.58 L/kg. For the same compound, the AUC(0-inf) [1, 2] was 1250 ng·h/mL, the AUC(0-inf) [1, 3] was 1230 ng·h/mL and the clearance ([1]; male, Wistar-Hannover, rat, plasma, iv, 2 mg/kg, Clearance, Mean, PF-00835231 active dosed 2mg/kg intravenous) was 27 mL/min/kg. The clearance ([1]; male, Wistar-Hannover, rat, plasma, iv, 2 mg/kg, Clearance, PF-00835231 active dosed 2mg/kg intravenous, individual rats) was 27.1 mL/min/kg, the half-life ([1]; male, Wistar-Hannover, rat, plasma, iv, 2 mg/kg, Half life, Mean, PF-00835231 active dosed 2mg/kg intravenous) was 43.1 min and the half-life ([1]; male, Wistar-Hannover, rat, plasma, iv, 2 mg/kg, Half life, PF-00835231 active dosed 2mg/kg intravenous, individual rats) was 39.2 min. It also gave a half-life ([1]; male, Wistar-Hannover, rat, plasma, iv, 2 mg/kg, Terminal T1/2, rat IV, PF-07304814 […] (n=2, range), PF-00835231 2mg/kg (n=3, ± SD)) of under 120 min, a Vd ([1]; male, Wistar-Hannover, rat, plasma, iv, 2 mg/kg, 2mg/kg intravenous, individual animals) of 0.637 L/kg and a Vd ([1]; male, Wistar-Hannover, rat, plasma, iv, 2 mg/kg, Mean, 2mg/kg intravenous) of 0.746 L/kg. For the same compound, the Vd [1, 2] was 0.746 L/kg, the Vd [1, 3] was 0.637 L/kg and the Vd ([1]; male, Wistar-Hannover, rat, plasma, iv, 2 mg/kg, Vdss input) was 0.75 L/kg. For the same compound, the Vd ([1]; male, Wistar-Hannover, rat, plasma, iv, 2 mg/kg, rat IV, PF-07304814 […] (n=2, range), PF-00835231 2mg/kg (n=3, ± SD)) was under 1.5 L/kg, the clearance ([1]; male, Wistar-Hannover, rat, plasma, iv, CL, rat IV, PF-07304814 […] (n=2, range), PF-00835231 2mg/kg (n=3, ± SD)) was 27 ± 3.1 mL/min/kg and the half-life ([1]; male, Wistar-Hannover, rat, plasma, iv, Terminal T1/2, rat IV, PF-07304814 […] (n=2, range), PF-00835231 2mg/kg (n=3, ± SD)) was 43.2 ± 7.2 min. It also gave a Vd ([1]; male, Wistar-Hannover, rat, plasma, iv, rat IV, PF-07304814 […] (n=2, range), PF-00835231 2mg/kg (n=3, ± SD)) of 0.75 ± 0.24 L/kg, a bioavailability ([1]; male, Wistar-Hannover, rat, plasma, po, 2 mg/kg, Oral F%, rat, 2mg/kg PO vs IV) of 1.4 ± 0.76% and an AUC(0-t) ([1]; male, Wistar-Hannover, rat, plasma, po, 5 mg/kg, AUCt, Mean, PF-00835231 5mg/kg PO dose) of 12.8 ng·h/mL. For the same compound, the “Urine Concn” value ([1]; rat urine 0-7 h, PF-00835231 active dosed 2mg/kg intravenous, individual rats, 2 mg/kg) was 29200 ng/mL and 3180 ng/mL and 6320 ng/mL, the “Urine Concn” value ([1]; rat urine 7-24 h, PF-00835231 active dosed 2mg/kg intravenous, individual rats, 2 mg/kg) was 234 ng/mL and 85.6 ng/mL and 368 ng/mL and the AUCt ([1]; rat, PF-00835231 5mg/kg PO dose, individual rats, 5 mg/kg) was 5.75 ng·h/mL and 18.5 ng·h/mL and 14.1 ng·h/mL. The AUCinf [1, 4] was 1110 ng·h/mL and 1400 ng·h/mL, the Half life [1, 4] was 51.4 min and 38.7 min and the Vdss [1, 4] was 1.02 L/kg and 0.58 L/kg. For the same compound, the clearance [1, 4] was 30 mL/min/kg and 23.8 mL/min/kg, the “Oral F%” value ([1]; rat, 2mg/kg PO vs IV, 2 mg/kg) was under 2% and the solubility at 48 h (Solubility measurement; deionized water and pH buffers) was under 100 µg/mL. For the same compound, the solubility (Solubility measurement; standard solubilizing excipients, aqueous with cosolvent or surfactant or cyclodextrin) was 500 µg/mL (≈ 1060 µM), the IC50 (MATE1; IC50, [14C]Metformin (20 µM)) was 175 µM and the IC50 (MATE1; human, pH 7.4, IC50, [14C]Metformin (20 µM)) was over 20 µM. The IC50 (OCT1) was 36.3 µM and the IC50 (OCT1; human, HEK293 cells stably transfected with OCT1, pH 7.4, probe [14C]-metformin (10 µM)) was over 20 µM.
